Values of other authors, collected in patent US10029116B2, “Method for the treatment of acne” (DUSA PHARMACEUTICALS, INC., priority 2012, dated 2018).

Assays:
[1] = test system: protoporphyrin IX in acne lesions
protoporphyrin IX = settings: mouse skin

- time by which the ability of light to excite protoporphyrin IX in acne lesions disappeared ([1]; no occlusive covering): ≤ 24 h
- persistence of the ability of light to excite protoporphyrin IX in skin having acne lesions ([1]; occlusive covering placed over the skin): ≤ 24 h
- time for protoporphyrin levels to return to near pretreatment baseline (protoporphyrin IX): about 18 hours
- time to peak protoporphyrin IX concentration (protoporphyrin IX): about six
SMILES: NCC(=O)CCC(=O)O [ALA, aminolevulinic acid]
